System: Lactobacillus paracasei viro-01
Test: Antibiotic sensitivity test (disc)
Type: cell-based
Conditions: for growth-inhibition zone: Mueller Hinton agar, 37° C., 16 hours; for resistance of Lactobacillus paracasei viro-01 to the antibiotic: judged by the zone limits printed per antibiotic (resistant/moderate/sensitive)
Description: Antibiotic sensitivity of the Lactobacillus paracasei viro-01 of the present invention were tested. The antibiotic resistance test was carried out by Scientec Lab Center Co., Ltd.(Daejeon city, Daedeok, Korea) approved by the KFDA.
Antibiotics used were Cephalexin, Flumequine, Furazolidone, Gentamycin, Spectinomycin, Tetracycline, Tiamulin, Neomycin, Chloramphenicol and Kanamycin, and test procedures were as described below.
5 to 6 colonies of cultured Lactobacillus paracasei viro-01 were selected, inoculated into bacterial growth medium composed of peptone 10.0 g/L, beef extract 10.0 g/L, yeast extract 5.0 g/L, glucose 20.0 g/L, Tween 80 1.0 mL/L, K2HPO4 2.0 g/L, sodium acetate 5.0 g/L, triammonium citrate 2.0 g/L, MgSO4.7H2O 0.2 g/L and MnSO4.4H2O 0.2 g/L and incubated at 37° C. Turbidity of said culture was adjusted to MacFarland No. 0.5, and used as test bacteria solution. Said test bacteria solution was smeared on Mueller Hinton agar plates and antibiotic sensitivity test disc was added thereto and incubated at 37° C. for 16 hours.
Antibiotic sensitivity was determined by measuring the area of growth inhibition surrounding each test disc.

| Molecule | growth-inhibition zone (content 10 μg/disc) | resistance of Lactobacillus paracasei viro-01 to the antibiotic (content 10 μg/disc) | further results |
| --- | --- | --- | --- |
| CN[C@@H]1[C@H](O)[C@H](NC)[C@H]2O[C@@]3(O)C(=O)C[C@@H](C)O[C@H]3O[C@@H]2[C@H]1O [spectinomycin, Spectinomycin] | 0 mm | strong | resistance of Lactobacillus paracasei viro-01 to the antibiotic (content 10 μg/disc, listed as Spectinomycin): resistance |
| O=C1OCCN1/N=C/c1ccc([N+](=O)[O-])o1 [furazolidone, Furazolidone] | 0 mm | strong | resistance of Lactobacillus paracasei viro-01 to the antibiotic (content 10 μg/disc, listed as Furazolidone): resistance |
| Gentamycin | 13 mm | moderate | resistance of Lactobacillus paracasei viro-01 to the antibiotic (content 10 μg/disc, listed as Gentamycin): moderate resistance |
| CN(C)[C@@H]1C(O)=C(C(N)=O)C(=O)[C@@]2(O)C(O)=C3C(=O)c4c(O)cccc4[C@@](C)(O)[C@H]3C[C@@H]12 [tetracycline, Tetracycline] |  |  | growth-inhibition zone (content 30 μg/disc): 30 mm |
| NC[C@H]1O[C@H](O[C@H]2[C@H](O)[C@@H](O[C@H]3O[C@H](CO)[C@@H](O)[C@H](N)[C@H]3O)[C@H](N)C[C@@H]2N)[C@H](O)[C@@H](O)[C@@H]1O [kanamycin, Kanamycin] | 9 mm |  |  |
| O=C(N[C@H](CO)[C@H](O)c1ccc([N+](=O)[O-])cc1)C(Cl)Cl [chloramphenicol, Chloramphenicol] |  |  | growth-inhibition zone (content 30 μg/disc): 30 mm; resistance of Lactobacillus paracasei viro-01 to the antibiotic (content 30 μg/disc): none; resistance of Lactobacillus paracasei viro-01 to the antibiotic (content 30 μg/disc, listed as Chloramphenicol): no resistance |
| CC1CCc2cc(F)cc3c(=O)c(C(=O)O)cn1c23 (centres unmarked) [flumequine, Flumequine] | 0 mm | strong | resistance of Lactobacillus paracasei viro-01 to the antibiotic (content 10 μg/disc, listed as Flumequine): resistance |
| C=C[C@]1(C)C[C@@H](OC(=O)CSCCN(CC)CC)[C@]2(C)[C@H](C)CC[C@]3(CCC(=O)[C@H]32)[C@@H](C)[C@@H]1O [tiamulin, Tiamulin] | 28 mm | none | resistance of Lactobacillus paracasei viro-01 to the antibiotic (content 10 μg/disc, listed as Tiamulin): no resistance |
| CC1=C(C(=O)O)N2C(=O)[C@@H](NC(=O)[C@H](N)c3ccccc3)[C@H]2SC1 [sephalexin, Cephalexin] | 0 mm | strong | resistance of Lactobacillus paracasei viro-01 to the antibiotic (content 10 μg/disc, listed as Cephalexin): resistance |
| Neomycin | 13 mm | moderate | resistance of Lactobacillus paracasei viro-01 to the antibiotic (content 10 μg/disc, listed as Neomycin): moderate resistance |

Reference: US7026161B2, “Lactobacillus sp. strain and use thereof” (Sesang Life Science, Inc., priority 2001, dated 2006)
